Measurements reported in ChEMBL document CHEMBL3507680, “University of Dundee, Gates Library screen for HepG2 cell viability”.

Assay: Human HepG2 cell viability assay in 384 well format
Assay type: toxicity, cell-based
Parameters: dose 125 nL, time 70.5 hour; cytotoxicity at 70.5 h: concentration not given beside the values
Details: HepG2 cells, read-out: Inhibition

Compound	cytotoxicity at 70.5 h
NC(=O)c1cc2c(nc1CCOc1ccc(F)cc1)CCC2	-2.31%
O=C(c1ccco1)N1CCN2C[C@H](Oc3cncnc3)C[C@H]2C1	12.4%
CC(NC(=O)CCCOc1ccccc1)c1nnc2n1CCCCC2 (configuration not stated)	-20.9%
CCN(C)c1ncnc2c1CCN(C(=O)Cc1ccccn1)CC2	-9.09%
CCN1CCCC1(C)c1nc(C)cc(N)n1 (configuration not stated)	-10.7%
O=C(c1ccccn1)N1CCc2ncnc(-c3ccncc3)c2CC1	-0.573%
CNC(=O)N1CC[C@@H]2CN(Cc3cccc(Cl)c3)S(=O)(=O)[C@@H]2CC1	-4.42%
CC1(C)CC(=O)c2cnc3nc(N4CCCCC4)nc(O)c3c2C1	-11%
Cc1csc(C(C)(C)NCc2ncc(-c3ccccc3)o2)n1	-7.99%
O=c1ccn(Cc2nc(-c3ccccc3F)cs2)c(=O)[nH]1	0.45%
O=C1CCCN1Cc1ncn2c1CN(C(=O)N1CCCC1)CCC2	0.134%
Cc1nn(C)cc1S(=O)(=O)N[C@@H]1CCC[C@@H](n2ccnc2)[C@@H]1O	-6.03%
C[C@@H]1CN(C(=O)C2CCS(=O)(=O)CC2)C[C@]1(C)O	-8.15%
COc1cccc(S(=O)(=O)N2C[C@@H](O)[C@H](N(C)C)C2)c1	-15.9%
Cc1c(C(=O)N2CCC(O)(CN(C)C)C2)c2ccccc2n1C (configuration not stated)	11%
Cc1nn(CCO)c(C)c1CNC1CCc2c(Cl)cccc21 (configuration not stated)	10.2%
Cn1c(C2CCCN2C(=O)CN2CSCC2=O)nc2ccccc21 (configuration not stated)	-5.23%
CN1CCOC[C@H]1c1nc(C(C)(C)C)c[nH]1	11.4%
CCOc1ccc(C(=O)CCC(=O)N(C)Cc2nc(C)c[nH]2)cc1C	-19.8%
Cc1ccn(-c2ccccc2NCc2ccccn2)n1	-8%
CCn1nc(C)c(CN2CCNCC2)c1C	-5.76%

Compound	cytotoxicity at 70.5 h
FC(F)(F)C1CCCn2c(CNCc3ccsc3)nnc21 (configuration not stated)	-9.55%
CCc1nnc2n1CCN(C(=O)CN(C)Cc1ccccc1)C2	-4.4%
CN(C)C(c1ccccn1)[C@H]1CC[C@H](CNC(=O)CC2CCCC2)CC1 (some centres not stated)	-7.26%
CC(C)NC(=O)N(C)C(c1cccc(F)c1)c1ccccn1 (configuration not stated)	-7.96%
CC(C)N1[C@H](CN2CCCC2)C[C@@H]2CN(C(=O)c3ccoc3)CC[C@@H]21	1.33%
COc1c(CNCCC(=O)Nc2cccc(C)n2)c(C)nn1C	-1.12%
Cc1cc(C2CCCN2C(=O)c2cnn(C)c2)on1 (configuration not stated)	14%
CC1CN(C)c2ccccc2N(C(=O)c2c[nH]c(C(C)C)n2)C1 (configuration not stated)	31.3%
CN(C)CCN1CCO[C@H]2CN(C(=O)C3CCOCC3)C[C@H]21	-4.53%
Cc1cc(C)c(CCNC(=O)NCCCC(N)=O)c(C)c1	-1.98%
Cc1nc(C2(NCc3c(C)nn(C)c3N3CCOCC3)CCC2)no1	10.7%
Cn1cc(CNCCNc2ncc(Cl)cc2Cl)cn1	-4.79%
CC(C)CC(C)N(C)Cc1nnc(-c2ccco2)o1 (configuration not stated)	31.7%
CO[C@H]1CCN(c2ccc(C)nn2)[C@H]1Cc1cnn(C)c1	5.26%
Cc1cccc(N(CC(=O)c2ccccc2)C2=NCCCCC2)c1	-11.4%
Cc1csc(CNC(=O)CCCc2cccs2)n1	-1.29%
CO[C@@H]1CCN(c2nnc(C)s2)C[C@@H]1Cc1ccccc1	-2.42%
Cc1noc(C)c1CNC(=O)NCCOc1ccc(F)cc1F	-3.02%
CC(C)CN1C[C@@H]2CN(C(=O)c3cccn3C)C[C@@H]2C1=O	-7.2%
CN1CC(c2ccccc2)CC2(CCN(C(=O)c3ccccc3)CC2)C1 (configuration not stated)	-5.15%
Cc1ncc(CNC2CCc3nc(C(C)C)nn3C2)s1 (configuration not stated)	1.67%

Compound	cytotoxicity at 70.5 h
CNC(=O)C1CCN(C(=O)NCc2ccc(C)n2C)CC1	-4.71%
C[C@]1(O)CCN(Cc2c[nH]cn2)C[C@@H]1Oc1cccc(F)c1	-7.83%
Cc1cc(C)n(CC(=O)N2CCC(c3ccn4nccc4n3)CC2)n1	26.6%
Cc1ccccc1-c1noc(CN2CC(n3cccn3)C2)n1	-5.02%
CCS(=O)(=O)NCCCNC1CSCCc2ccccc21 (configuration not stated)	-7.41%
Cn1ccc(C(=O)NC2CCN(c3ncccn3)CC2)cc1=O	-15.3%
O=C(NCCn1ccnc1)NCC(c1ccco1)N1CCCC1 (configuration not stated)	9.47%
COc1c(CNC2CCOc3c(Cl)cccc32)c(C)nn1C (configuration not stated)	12.2%
Brc1cnc(NCCCOC2CCOCC2)nc1	-6.88%
Fc1ccc(-c2nccnc2C2CCCNC2)cc1 (configuration not stated)	-3.79%
CC(C)(CN1CCCC1)CN1CCC(Cn2cc(C3CC3)nn2)CC1	-9.26%
CCOc1ccccc1-n1c(C2CC2)n[nH]c1=O	-16.7%
O=C1CCCc2occ(C(=O)N3CCCC4(CCNC4)C3)c21 (configuration not stated)	-7.04%
COC(=O)c1sccc1S(=O)(=O)NCCc1ccoc1	-5.25%
Cc1cnn(CC2CCCCN2CC(=O)N(C)Cc2ccc(C)o2)c1 (configuration not stated)	-2.13%
CCN(Cc1csc(CS(C)(=O)=O)n1)c1cccc(F)c1	-7.29%
Cn1ccc2c(C(=O)NCCCN3CCCC3)cccc21	-3.04%
Cc1nn(C)c(Cl)c1C1CCCN1Cc1ccc(C(N)=O)cc1 (configuration not stated)	-7.15%
Cn1cnc(S(=O)(=O)N2CC3(CCN(c4ccccc4)C3)C2)c1	20.3%
CN(Cc1ncc(-c2ccccc2C(=O)O)s1)c1ncccn1	31.6%
Cc1nc(C)n(C2CCCN(C(=O)COCc3ccccc3)C2)n1 (configuration not stated)	-0.931%

Compound	cytotoxicity at 70.5 h
CN(C)C(=O)CN1CCC2(C1)CN(CC1CCOCC1)C2	-2.25%
c1cnc(N2C[C@H](OCC3CCOCC3)[C@H]3COC[C@H]32)nc1	-1.34%
COC[C@]1(O)CCN(Cc2c[nH]c(CC3CCCC3)n2)CC1(C)C	30.4%
CC(=O)NCCNC(=O)CN1CCOC(Cn2cccn2)C1 (configuration not stated)	0.989%
COCC(Nc1ncnc2sc(C)c(C)c12)c1ccnn1C (configuration not stated)	-4.15%
Cc1cnn(CC2CCCN2C(=O)c2sccc2C#N)c1 (configuration not stated)	-2.76%
COc1cccc(CCCNC(=O)N2CCC(O)(C(F)(F)F)C2)c1 (configuration not stated)	-2.72%
O=C(Nc1ccccn1)C1CCN(Cc2cc3c(cc2O)OCO3)CC1	3.83%
CCOC(C)c1noc(CN2CCN(c3ccncc3)CC2)n1 (configuration not stated)	-6.31%
CCCN(CCO)C(=O)c1cc(COc2ccc3c(c2)CCCC3)on1	11.2%
CCc1ccsc1CNC(=O)CNC(=O)C(C)(C)C	-7.92%
CCOC(=O)C(C)Nc1ccc(CCN2CCOCC2)cc1 (configuration not stated)	-16.3%
O=C(Cc1ccccc1)NCc1ncc(-c2ccccc2C(=O)O)cn1	-4.73%
O=C(CCn1cccn1)N1CC[C@@H](c2ccc3ccccc3c2)[C@H](O)C1	3.07%
CN(Cc1nc(-c2cccs2)no1)Cc1nc2c(s1)CCCC2	-3.38%
O=C([C@H]1COC[C@H]2CN(CC3CCCC3)C[C@H]21)N1CCOCC1	2.13%
O=C(N[C@H]1CCCC[C@@H]1O)c1ccc(-c2nc3ccccc3[nH]2)cc1	-1.28%
COCCC(=O)N1CCn2cc(CN3CCN(C)CC3)nc2C1	0.542%
COCCn1ccnc1C1CCN(C(=O)CSc2nnc(C)s2)CC1	-5.74%
